Results as given in the supplement of paper PMC10307832.

Experiments:
Test in all cases: relative viability (nuclei count vs DMSO), 5 days (fraction); higher = more cells survive
VE-821 + Linsitinib = compound: CS(=O)(=O)c1ccc(-c2cnc(N)c(C(=O)Nc3ccccc3)n2)cc1 [VE-821] + C[C@]1(O)C[C@@H](c2nc(-c3ccc4ccc(-c5ccccc5)nc4c3)c3c(N)nccn32)C1 [Linsitinib] (partner 1 µM)
Method in brief: (§1)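 Relative viability equals treated-well nuclei counts divided by vehicle-well nuclei counts. Counts came from 4× images of lung cancer cell lines grown in 1536-well plates for 5 days after pin-tool dosing on the day after seeding. Dosing used one drug alone or a fixed anchor-drug dose plus five library-drug doses (not always all listed) in √10 steps, and values are medians of duplicate plates.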

Vismodegib + Navitoclax = compound: CS(=O)(=O)c1ccc(C(=O)Nc2ccc(Cl)c(-c3ccccn3)c2)c(Cl)c1 [Vismodegib] + CC1(C)CCC(c2ccc(Cl)cc2)=C(CN2CCN(c3ccc(C(=O)NS(=O)(=O)c4ccc(N[C@H](CCN5CCOCC5)CSc5ccccc5)c(S(=O)(=O)C(F)(F)F)c4)cc3)CC2)C1 [Navitoclax] (partner 0.5 µM)
Method in brief: as §1

Ruxolitinib + Foretinib = compound: N#CC[C@H](C1CCCC1)n1cc(-c2ncnc3[nH]ccc23)cn1 [Ruxolitinib] + COc1cc2c(Oc3ccc(NC(=O)C4(C(=O)Nc5ccc(F)cc5)CC4)cc3F)ccnc2cc1OCCCN1CCOCC1 [Foretinib] (partner 0.25 µM)
Method in brief: as §1

Ruxolitinib + Alpelisib = compound: N#CC[C@H](C1CCCC1)n1cc(-c2ncnc3[nH]ccc23)cn1 [Ruxolitinib] + Cc1nc(NC(=O)N2CCC[C@H]2C(N)=O)sc1-c1ccnc(C(C)(C)C(F)(F)F)c1 [Alpelisib] (partner 2 µM)
Method in brief: as §1

Cell Line	relative viability (VE-821 + Linsitinib; first compound 0.08 µM)	relative viability (VE-821 + Linsitinib; first compound 0.253 µM)	relative viability (VE-821 + Linsitinib; first compound 0.8 µM)	relative viability (VE-821 + Linsitinib; first compound 2.53 µM)	relative viability (VE-821 + Linsitinib; first compound 8 µM)	relative viability (Vismodegib + Navitoclax; first compound 0.08 µM)	relative viability (Vismodegib + Navitoclax; first compound 0.253 µM)	relative viability (Vismodegib + Navitoclax; first compound 0.8 µM)	relative viability (Vismodegib + Navitoclax; first compound 2.53 µM)	relative viability (Vismodegib + Navitoclax; first compound 8 µM)	relative viability (Ruxolitinib + Foretinib; first compound 0.08 µM)	relative viability (Ruxolitinib + Foretinib; first compound 0.253 µM)	relative viability (Ruxolitinib + Foretinib; first compound 0.8 µM)	relative viability (Ruxolitinib + Foretinib; first compound 2.53 µM)	relative viability (Ruxolitinib + Foretinib; first compound 8 µM)	relative viability (Ruxolitinib + Alpelisib; first compound 0.08 µM)	relative viability (Ruxolitinib + Alpelisib; first compound 0.253 µM)	relative viability (Ruxolitinib + Alpelisib; first compound 0.8 µM)	relative viability (Ruxolitinib + Alpelisib; first compound 2.53 µM)	relative viability (Ruxolitinib + Alpelisib; first compound 8 µM)
NCI-H1734	0.97	0.917	0.737	0.969	0.617	0.878	0.835	0.846	0.77	0.897	0.862	0.713	0.894	0.759	0.815	0.68	0.579	0.798	0.623	0.667
SK-LU-1	1.15	0.86	1.07	0.843	0.383	0.831	0.695	0.834	0.736	0.936	0.813	0.806	0.876	0.75	0.676	1.18	1.05	1.11	0.823	0.623
NCI-H3122	1.06	0.955	0.989	1.05	0.967	1.01	1.04	0.994	0.984	1.02	0.942	0.873	1.01	0.881	0.948	0.807	0.786	0.851	0.556	0.617
CAL-12T	0.94	0.805	0.725	0.891	0.956	1.21	0.965	1.33	1.23	1.24	1.19	1.15	1.17	0.899	0.777	1.26	1.31	1.25	1.05	0.78
HARA	1.03	1.02	0.931	0.972	0.702	1.13	1.15	1.16	1.11	1.14	0.882	0.851	1.05	0.879	0.806	0.862	0.817	0.785	0.697	0.857
NCI-H1666	0.765	0.884	0.777	0.857	0.553	1.08	1.02	1.15	0.936	0.934	0.844	0.93	1.01	0.856	0.892	0.973	0.821	1.06	0.823	1
NCI-H460	1.06	0.657	0.693	0.239	0.0295	1.01	0.995	1.28	1.06	1.21	1.02	0.999	1.1	0.917	0.843	0.567	0.389	0.567	0.398	0.306
NCI-H2087	1.18	0.873	1.23	1.05	0.864	0.952	0.969	0.961	0.954	0.943	1.03	0.983	1.28	0.975	0.772	0.951	0.832	1.13	0.769	0.954
Calu-6	1	0.839	0.83	1.13	0.942	0.712	0.781	0.817	0.877	0.845	0.936	0.884	0.99	0.81	0.523	1.02	1.03	1.09	0.851	0.673
IA-LM	0.836	0.54	0.741	0.903	0.636	0.912	0.725	0.908	0.82	0.868	1.04	1.19	1.34	1.22	0.885	0.676	0.849	0.959	0.584	0.679
NCI-H1355	0.803	0.789	0.654	0.767	0.56	0.931	1.06	0.863	0.913	0.952	0.85	0.967	1.12	0.87	0.893	0.793	0.83	0.85	0.58	0.612
NCI-H838	1.13	0.992	0.913	1.11	0.913	1.1	1.23	1.11	1.21	1.18	1.06	0.994	0.907	0.572	0.453	0.848	0.973	0.823	0.618	0.31
SW 1573	0.912	0.859	0.789	0.874	0.874	0.808	0.94	0.886		1.04	0.979	0.916	1.1	0.834	0.885	0.926	0.712	0.984	0.558	0.687
NCI-H2085	0.979	0.891	0.847	0.941	0.926	1.11	1.06	1.12	1.06	1.12	1.03	0.984	1.13	0.797	0.732	0.971	1.02	1.13	0.979	0.822
NCI-H1651	1.01	0.999	0.847	0.986	0.737	0.954	0.956	0.984	0.885	1.11	0.621	0.791	0.947	0.776	0.95	0.941	0.875	1.08	1.09	0.968
NCI-H1993	0.729	0.668	0.764	0.697	0.595	1.1	0.913	0.884	0.759	0.705	0.752	0.698	0.821	0.857	0.817	0.705	0.71	0.678	0.722	0.675

Cell Line	relative viability (VE-821 + Linsitinib; first compound 0.08 µM)	relative viability (VE-821 + Linsitinib; first compound 0.253 µM)	relative viability (VE-821 + Linsitinib; first compound 0.8 µM)	relative viability (VE-821 + Linsitinib; first compound 2.53 µM)	relative viability (VE-821 + Linsitinib; first compound 8 µM)	relative viability (Vismodegib + Navitoclax; first compound 0.08 µM)	relative viability (Vismodegib + Navitoclax; first compound 0.253 µM)	relative viability (Vismodegib + Navitoclax; first compound 0.8 µM)	relative viability (Vismodegib + Navitoclax; first compound 2.53 µM)	relative viability (Vismodegib + Navitoclax; first compound 8 µM)	relative viability (Ruxolitinib + Foretinib; first compound 0.08 µM)	relative viability (Ruxolitinib + Foretinib; first compound 0.253 µM)	relative viability (Ruxolitinib + Foretinib; first compound 0.8 µM)	relative viability (Ruxolitinib + Foretinib; first compound 2.53 µM)	relative viability (Ruxolitinib + Foretinib; first compound 8 µM)	relative viability (Ruxolitinib + Alpelisib; first compound 0.08 µM)	relative viability (Ruxolitinib + Alpelisib; first compound 0.253 µM)	relative viability (Ruxolitinib + Alpelisib; first compound 0.8 µM)	relative viability (Ruxolitinib + Alpelisib; first compound 2.53 µM)	relative viability (Ruxolitinib + Alpelisib; first compound 8 µM)
NCI-H2126	0.805	0.652	0.589	0.715	0.627	0.838	0.846	0.864	0.802	0.766	1.09	1.27	1.2	1.12	1.16	0.773	0.767	0.782	0.807	0.789
NCI-H1793	1.01	0.846	0.459	1.01	0.698		0.481	0.504	0.522	0.373	0.604	0.668	0.959	0.761	0.54	0.539	0.654	0.789	0.83	0.679
LC-2-ad	0.88	0.764	0.821	0.925	0.661	0.573	0.447	0.422	0.522	0.553		0.743	0.977	0.746	0.64	0.895	0.848	0.934	0.734	0.567
NCI-H647	1.44	1.28	0.829	0.751	0.493		1.02	1.18	1.03	1.28	1.08	1.27	1.31	1.19	1.08	1.33	1.11	1.15	0.941	0.643
LCLC-97TM1	0.186	0.2	0.19	0.183	0.191			0.443		0.63	0.848	0.753	0.826	0.834	0.889	0.215	0.204	0.275	0.235	0.327
LK-2	0.583	0.595	0.662	0.705	0.501	0.818	0.734	0.797	0.859	0.784	1.15	1.45	1.46	1.29	1.34		0.992	1.27	0.971	1.43
BEN	0.967	0.871	0.793	0.911	0.753	0.0646	0.062	0.0698	0.0746	0.0684	0.773	0.634	0.729	0.62	0.612	0.944	0.965	1.16	0.956	1.08
EKVX	1.2	0.893	0.643	0.932	0.681	0.664	0.901	0.999	0.899	0.914	0.234	0.698	0.768	0.795	0.311	0.769	0.862	1	0.92	0.832
NCI-H1395	1.07	1.01	0.893	1.05	0.683	1.02	1.09	1.01	1.11	1.23	1.07	0.919	1.03	0.866	0.968		1.27	1.21	1.02	0.892
NCI-H2009	1.23	1.19	1.12	1.22	1.23	1.15	1.12	1.2	1.17	1.17	1.21	1.27	1.23	1.15	0.876	1.11	1.17	1.12	1.01	0.903
NCI-H23	0.56	0.639	0.485	0.706	0.37	0.89	0.735	0.926	0.811	0.86	1.07	0.969	1	0.813	0.709	0.611	0.726	0.801	0.72	0.535
LU99A	0.496	0.535	0.545	0.53	0.278	0.722	0.794	0.79	0.881	0.71	0.882	0.858	0.787	0.69	0.641	0.532	0.456	0.523	0.523	0.412
NCI-H1915	1.09	1.16	1.13	1.18	0.972	0.773	0.805	0.747	0.729	0.759	1.1	1.11	1.17	0.947	0.982	1.06	1.04	1.11	1.04	0.966
EMC-BAC-2	0.881	0.817	0.849	0.852	0.841	1.11	1.15	1.23	1.13	1.19	1.06	0.951	1.03	0.819	0.824	0.725	0.72	0.742	0.637	0.568
201T	0.975	0.941	0.956	0.968	0.818	1.23	1.18	1.15	1.23	1.17	1.11		1.43	1.1	1.26	1.11	1.11	1.27	1.39	1.33
NCI-H2228	0.955	0.866	0.635	0.758	0.395	0.838	1.1	0.932	0.741	0.901	0.86	0.911	0.794	0.717	0.429	0.667	0.56	0.773	0.46	0.361
